Assay results as given in the supplement of paper PMC11451515.

System: NOMO1
Assay: cell viability relative to DMSO control; higher = less cytotoxic
Conditions: 48 h
Method in brief: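 Library compounds in DMSO were pin-dosed in an 11-point threefold series (47 μM to 0.79 nM) onto leukemia cells in 1536-well plates (5 μl). Plates held 500 cells/well of NOMO1 or SEM or 1000 cells/well of P12-Ichikawa, each adapted for at least four passages in each medium. Luminescence was read with CellTiter-Glo One after 48 h at 37°C. Viability means the per-plate percentage relative to DMSO wells, using cell-free wells as background.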

[1] = HPLM + 10% dialyzed FBS, 0.000781 µM
[2] = HPLM + 10% dialyzed FBS, 0.00234 µM
[3] = HPLM + 10% dialyzed FBS, 0.00702 µM
[4] = HPLM + 10% dialyzed FBS, 0.0211 µM
[5] = HPLM + 10% dialyzed FBS, 0.0632 µM
[6] = HPLM + 10% dialyzed FBS, 0.19 µM
[7] = HPLM + 10% dialyzed FBS, 0.569 µM
[8] = HPLM + 10% dialyzed FBS, 1.71 µM
[9] = HPLM + 10% dialyzed FBS, 5.12 µM
[10] = HPLM + 10% dialyzed FBS, 15.4 µM
[11] = HPLM + 10% dialyzed FBS, 46.1 µM
[12] = RPMI 5 mM glucose + 10% FBS, 0.000781 µM
[13] = RPMI 5 mM glucose + 10% FBS, 0.00234 µM
[14] = RPMI 5 mM glucose + 10% FBS, 0.00702 µM
[15] = RPMI 5 mM glucose + 10% FBS, 0.0211 µM
[16] = RPMI 5 mM glucose + 10% FBS, 0.0632 µM
[17] = RPMI 5 mM glucose + 10% FBS, 0.19 µM
[18] = RPMI 5 mM glucose + 10% FBS, 0.569 µM
[19] = RPMI 5 mM glucose + 10% FBS, 1.71 µM
[20] = RPMI 5 mM glucose + 10% FBS, 5.12 µM
[21] = RPMI 5 mM glucose + 10% FBS, 15.4 µM
[22] = RPMI 5 mM glucose + 10% FBS, 46.1 µM
[23] = RPMI 5 mM glucose + 10% dialyzed FBS, 0.000781 µM
[24] = RPMI 5 mM glucose + 10% dialyzed FBS, 0.00234 µM
[25] = RPMI 5 mM glucose + 10% dialyzed FBS, 0.00702 µM
[26] = RPMI 5 mM glucose + 10% dialyzed FBS, 0.0211 µM
[27] = RPMI 5 mM glucose + 10% dialyzed FBS, 0.0632 µM
[28] = RPMI 5 mM glucose + 10% dialyzed FBS, 0.19 µM
[29] = RPMI 5 mM glucose + 10% dialyzed FBS, 0.569 µM
[30] = RPMI 5 mM glucose + 10% dialyzed FBS, 1.71 µM
[31] = RPMI 5 mM glucose + 10% dialyzed FBS, 5.12 µM
[32] = RPMI 5 mM glucose + 10% dialyzed FBS, 15.4 µM
[33] = RPMI 5 mM glucose + 10% dialyzed FBS, 46.1 µM

SMILES | cell viability [1] | cell viability [2] | cell viability [3] | cell viability [4] | cell viability [5] | cell viability [6] | cell viability [7] | cell viability [8] | cell viability [9] | cell viability [10] | cell viability [11] | cell viability [12] | cell viability [13] | cell viability [14] | cell viability [15] | cell viability [16] | cell viability [17] | cell viability [18] | cell viability [19] | cell viability [20] | cell viability [21] | cell viability [22] | cell viability [23] | cell viability [24] | cell viability [25] | cell viability [26] | cell viability [27] | cell viability [28] | cell viability [29] | cell viability [30] | cell viability [31] | cell viability [32] | cell viability [33]
CC(=O)Oc1cc2c(s1)CCN(C(C(=O)C1CC1)c1ccccc1F)C2.Cl (stereo not drawn) | 90.3% | 106% | 104% | 117% | 98.3% | 107% | 116% | 64.7% | 58% | 42.7% | 16% | 98.5% | 92.7% | 95.5% | 94.3% | 97.3% | 108% | 91.1% | 76.8% | 64.4% | 51.7% | 18.7% | 88% | 95.6% | 100% | 101% | 90.4% | 99.6% | 103% | 86.4% | 62.1% | 40.3% | 25.1%
CCC[C@@H](C=O)NC(=O)[C@H](CC(C)C)NC(=O)[C@H](CC(C)C)NC(=O)OCc1ccccc1 | 113% | 121% | 121% | 138% | 138% | 139% | 138% | 75.4% | 19.2% | 7.83% | 5.86% | 101% | 110% | 119% | 135% | 126% | 127% | 127% | 35.3% | 13.9% | 8.52% | 7.79% | 115% | 130% | 124% | 131% | 143% | 143% | 132% | 93.1% | 32.4% | 9.45% | 7.3%
C=CC(=O)Nc1cccc(Oc2nc(Nc3ccc(N4CCN(C)CC4)cc3OC)ncc2Cl)c1 | 64.3% | 69.5% | 78.3% | 79.1% | 81.9% | 80.6% | 73.9% | 76.5% | 54.7% | 45.1% | 33.3% | 72.9% | 74.3% | 79.3% | 78.8% | 87.1% | 102% | 82.1% | 52.1% | 67.3% | 62.1% | 55.8% | 69.6% | 77.9% | 79.4% | 85.8% | 80.6% | 79.2% | 77.3% | 87.9% | 66.1% | 72.2% | 45.5%
NC1CCC(Nc2nc(Nc3ccc(C(=O)N4CCCCC4)cc3)c3ncn(-c4cccc(F)c4)c3n2)CC1 (stereo not drawn) | 114% | 110% | 119% | 121% | 132% | 117% | 129% | 144% | 107% | 119% | 154% | 117% | 113% | 113% | 126% | 123% | 124% | 129% | 107% | 123% | 128% | 129% | 118% | 114% | 133% | 113% | 121% | 127% | 127% | 121% | 125% | 119% | 123%
CCCCCCCCOc1ccccc1C(=O)Nc1ccc(C(=O)OCC[N+](C)(CC)CC)cc1 | 101% | 104% | 103% | 104% | 110% | 99.5% | 85.8% | 100% | 78.1% | 88.1% | 28.7% | 84.6% | 94.7% | 93.2% | 83.8% | 93.4% | 86.4% | 90.1% | 83.7% | 82% | 81% | 21.7% | 92.8% | 93.5% | 96.6% | 90.1% | 98.3% | 91.9% | 83.7% | 84.4% | 73.9% | 88.8% | 31.8%
CCNC(=O)Nc1ccc(-c2nc3c(c(N4CCOC[C@@H]4C)n2)CCN(C2COC2)C3)cc1 | 117% | 130% | 102% | 119% | 101% | 95.9% | 88.6% | 66.5% | 57.6% | 44.5% | 40.5% | 109% | 102% | 105% | 107% | 105% | 94.6% | 98.9% | 84.6% | 67.3% | 52.8% | 46.6% | 108% | 115% | 119% | 102% | 98.4% | 97.2% | 101% | 66.7% | 66.5% | 52.8% | 45.4%
Cn1cnc(-c2cc3nccc(Oc4ccc(NC(=S)NC(=O)Cc5ccccc5)cc4F)c3s2)c1 | 72.5% | 93.2% | 84.1% | 92.4% | 99.9% | 97.1% | 91.3% | 86% | 77.9% | 62% | 25.8% | 77.3% | 88.3% | 77.4% | 86.2% | 89.8% | 96.4% | 89.6% | 87.5% | 82.2% | 85.2% | 20.5% | 84% | 81.2% | 68.1% | 86% | 93.6% | 101% | 83% | 90% | 86.1% | 88.1% | 26.7%
O=C(NCCO[N+](=O)[O-])c1cccnc1 | 112% | 124% | 123% | 133% | 137% | 126% | 136% | 135% | 129% | 123% | 62.3% | – | – | – | – | – | – | – | – | – | – | – | 118% | 120% | 123% | 135% | 127% | 119% | 133% | 124% | 125% | 125% | 92.1%
